The values below are quoted from earlier work in patent US20230228766A1, “SERUM BIOMARKERS FOR PREDICTING AND PREVENTING HEMORRHAGIC STROKE” (Texas Tech University System, priority 2020, published 2023).

The conditions of the data set: free PRG in blood.

`CC(=O)[C@H]1CC[C@H]2[C@@H]3CCC4=CC(=O)CC[C@]4(C)[C@H]3CC[C@]12C` [PRG, progesterone]: the “half-life of free, active form in blood” value is 5 to 10 min.
